Data reported in the supplement of paper PMC10307832.

Legend:
Test in all cases: relative viability (nuclei count vs DMSO), 5 days (fraction); higher = more cells survive
Carfilzomib + Pemetrexed = compound: CC(C)C[C@H](NC(=O)[C@H](CCc1ccccc1)NC(=O)CN1CCOCC1)C(=O)N[C@@H](Cc1ccccc1)C(=O)N[C@@H](CC(C)C)C(=O)[C@@]1(C)CO1 [Carfilzomib] + Nc1nc2[nH]cc(CCc3ccc(C(=O)N[C@@H](CCC(=O)O)C(=O)O)cc3)c2c(=O)[nH]1 [Pemetrexed] (partner 0.2 µM)
Outline: (§1)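 Lung cancer cell lines were pin-tool dosed in 1536-well plates on the day after seeding, with either a lone drug or a fixed anchor-drug dose plus five library-drug doses (not always all listed) in √10 steps. Nuclei were counted on 4× images after 5 days. Relative viability is the ratio of treated-well to vehicle-well nuclei counts, with each value a median of duplicate plates.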

Carfilzomib + Olaparib = compound: CC(C)C[C@H](NC(=O)[C@H](CCc1ccccc1)NC(=O)CN1CCOCC1)C(=O)N[C@@H](Cc1ccccc1)C(=O)N[C@@H](CC(C)C)C(=O)[C@@]1(C)CO1 [Carfilzomib] + O=C(c1cc(Cc2n[nH]c(=O)c3ccccc23)ccc1F)N1CCN(C(=O)C2CC2)CC1 [Olaparib] (partner 8 µM)
Outline: as §1

Crizotinib + Phenformin = compound: C[C@@H](Oc1cc(-c2cnn(C3CCNCC3)c2)cnc1N)c1c(Cl)ccc(F)c1Cl [Crizotinib] + N=C(N)NC(=N)NCCc1ccccc1 [Phenformin] (partner 250 µM)
Outline: as §1

Olaparib + OSI-027 = compound: O=C(c1cc(Cc2n[nH]c(=O)c3ccccc23)ccc1F)N1CCN(C(=O)C2CC2)CC1 [Olaparib] + COc1cccc2cc(-c3nc([C@H]4CC[C@H](C(=O)O)CC4)n4ncnc(N)c34)[nH]c12 [OSI-027] (partner 0.5 µM)
Outline: as §1

Row | Cell Line | relative viability (Carfilzomib + Pemetrexed; first compound 0.001 µM) | relative viability (Carfilzomib + Pemetrexed; first compound 0.003162 µM) | relative viability (Carfilzomib + Pemetrexed; first compound 0.01 µM) | relative viability (Carfilzomib + Pemetrexed; first compound 0.03162 µM) | relative viability (Carfilzomib + Pemetrexed; first compound 0.1 µM) | relative viability (Carfilzomib + Olaparib; first compound 0.001 µM) | relative viability (Carfilzomib + Olaparib; first compound 0.003162 µM) | relative viability (Carfilzomib + Olaparib; first compound 0.01 µM) | relative viability (Carfilzomib + Olaparib; first compound 0.03162 µM) | relative viability (Carfilzomib + Olaparib; first compound 0.1 µM) | relative viability (Crizotinib + Phenformin; first compound 0.01 µM) | relative viability (Crizotinib + Phenformin; first compound 0.03162 µM) | relative viability (Crizotinib + Phenformin; first compound 0.1 µM) | relative viability (Crizotinib + Phenformin; first compound 0.3162 µM) | relative viability (Crizotinib + Phenformin; first compound 1 µM) | relative viability (Olaparib + OSI-027; first compound 0.08 µM) | relative viability (Olaparib + OSI-027; first compound 0.253 µM) | relative viability (Olaparib + OSI-027; first compound 2.53 µM) | relative viability (Olaparib + OSI-027; first compound 8 µM)
1 | NCI-H2228 | 0.316 | 0.364 | 0.361 | 0.0862 | 0.143 | 0.838 | 0.813 | 0.61 | 0.0953 | 0.124 | 0.23 | 0.241 | 0.29 | 0.172 | 0.164 | 0.644 | 0.386 | 0.598 | 0.509
2 | NCI-H2342 | 0.732 | 0.786 | 0.853 | 0.78 | 0.449 | 0.424 | 0.541 | 0.499 | 0.497 | 0.317 | 0.512 | 0.567 | 0.54 | 0.549 | 0.544 | 0.565 | 0.54 | 0.55 | 0.564
3 | NCI-H2347 | 0.456 | 0.44 | 0.423 | 0.403 | 0.272 | 0.502 | 0.587 | 0.564 | 0.503 | 0.363 | 0.24 | 0.329 | 0.473 | 0.488 | 0.333 | 0.472 | 0.371 | 0.344 | 0.37
4 | NCI-H2405 | 1.02 | 1.14 | 1.04 | 0.898 | 0.205 | 0.836 | 0.946 | 0.915 | 0.699 | 0.211 | 0.364 | 0.417 | 0.378 | 0.412 | 0.398 | 0.717 | 0.625 | 0.636 | 0.583
5 | NCI-H3122 | 0.194 | 0.198 | 0.207 | 0.189 | 0.154 | 0.654 | 0.611 | 0.609 | 0.452 | 0.269 | 0.374 | 0.38 | 0.4 | 0.333 | 0.236 | 1.14 | 0.954 | 1.01 | 0.814
6 | PC-3 [JPC-3] | 1.04 | 1.1 | 1.23 | 0.642 | 0.294 | 1.17 | 1.16 | 1.18 | 0.652 | 0.301 | 0.469 | 0.506 | 0.482 | 0.452 | 0.482 | 0.825 | 0.711 | 0.824 | 0.747
7 | PC-14 | 0.145 | 0.14 | 0.197 | 0.0596 | 0.0657 | 0.281 | 0.334 | 0.243 | 0.0393 | 0.0576 | 0.562 | 0.675 | 0.642 | 0.526 | 0.522 | 1.27 | 0.795 | 0.805 | 0.471
8 | RERF-LC-KJ | 0.444 | 0.51 | 0.489 | 0.368 | 0.248 | 1.05 | 0.898 | 0.91 | 0.379 | 0.22 |  | 0.421 | 0.409 | 0.435 | 0.409 | 0.66 | 0.592 | 0.598 | 0.614
9 | SK-LU-1 | 0.946 | 1.03 | 0.978 | 0.258 | 0.182 | 0.421 | 0.54 | 0.438 | 0.198 | 0.147 | 0.544 | 0.535 | 0.506 | 0.499 | 0.547 | 0.345 | 0.331 | 0.382 | 0.24
10 | SK-MES-1 | 1.02 | 1.1 | 1.14 | 0.786 | 0.177 | 0.709 | 0.847 | 0.775 | 0.276 | 0.146 | 0.617 | 0.676 | 0.638 | 0.645 | 0.593 | 0.674 | 0.553 | 0.577 | 0.459
11 | SW 900 |  | 0.497 | 0.176 | 0.152 | 0.216 |  | 0.756 | 0.323 | 0.174 | 0.168 | 0.556 | 0.651 | 0.652 | 0.586 | 0.723 | 0.693 | 0.561 | 0.565 | 0.458
12 | SW 1573 | 0.809 | 0.927 | 0.613 | 0.071 | 0.0521 | 0.587 | 0.487 | 0.215 | 0.0532 | 0.0533 | 0.418 | 0.376 | 0.39 | 0.302 | 0.391 | 0.738 | 0.675 | 0.471 | 0.517
13 | UMC-11 | 0.803 | 0.928 | 0.881 | 0.652 | 0.251 | 0.342 | 0.326 | 0.315 | 0.347 | 0.205 | 0.259 | 0.339 | 0.321 | 0.27 | 0.306 | 0.474 | 0.392 | 0.481 | 0.334
